Reference: US20180325923A1, “FATTY ACID ACETYLATED SALICYLATES AND THEIR USES” (Catabasis Pharmaceuticals, Inc., priority 2008, published 2018)
Where two headings read alike, the source gives them in different places.

System: TNFα secretion in RAW 264.7 macrophages
Test: TNFα release assay in RAW 264.7 macrophages stimulated with LPS
Assay type: cell-based, mouse
Excerpt: The purpose of this assay is to measure the ability of small molecules to inhibit the secretion of TNFα in cultured macrophages stimulated with lipopolysaccharide (LPS). Treatment of macrophages with LPS activates inflammatory cytokine pathways primarily through the TLR4-NFκB signaling axis. […] Dexamethasone, a potent agonist of the glucocorticoid receptor is used a positive control for inhibition of TNFα release. Day 1: Seed RAW 264.7 macrophages into 96 well culture plates. Remove culture media from RAW 264.7 cell growing in a […] tissue culture flask (cells should be at […] confluence) and add 10 ml of warmed complete growth media (DMEM+10% FBS+1× pen/step). The cells are scraped into suspension using a sterile plate scraper and homogenized by pipetting up and down with a 10 ml serological pipette. The cell concentration is determined using a clinical hematoctyometer. Cells are then diluted to 150,000 cells per ml into growth media. The diluted cells are then transferred to a sterile reagent reservoir and 100 μl of cell suspension is pipetted into each well of a 96 well culture plate using a multichannel pipette (15,000 cells/well). Plates are then incubated at 37° C. under normal tissue culture growth conditions (37° C., humidified CO2 chamber). Day 2: The test compound sample plate is prepared. Test compounds are prepared in growth media. Compounds are delivered to media from 1000× stocks in 100% DMSO (e.g. for a 10 μM final concentration of test compound, deliver 2 μl of 10 mM test compound to 2 ml of media). At least 150 μl of 1× compound in media is added to 96 well sample plate. Note: the perimeter wells of the 96 well plate are not used to avoid edge effects. Twelve sample wells are prepared with media plus 0.1% DMSO (these samples will serve as the vehicle controls; LPS-stimulated and non-stimulated. 10 μM dexamethasone is used as a positive control). Culture plates are then returned to the growth incubator for 2 hours. Cells are stimulated afterwards by adding 25 μl of 50 ng/ml LPS is added to every well (except the 6 unstimulated vehicle control wells: final concentration of 10 ng/ml LPS. Plates are returned to growth incubator for 3 hours. Afterwards, 100 μl of media supernatant is removed and transferred to a 96 well v-bottom sample plate. The media supernatant plate is centrifuged for 5 minutes at 1000 rpm in a swing-bucket centrifuge, pelleting any cellular debris that may remain in supernatant. 80 μl of supernatant is removed from sample plate and transferred to a fresh v-bottom 96 well plate. Cell viability is measured using Celltiter-glo kit. By measuring cell viability, a given compound's effects on TNFα secretion can determine whether effects are due to cytotoxicity or to true inhibition of inflammatory signaling. Add 100 μl of Celltiter-glo reagent to each well of the cell culture plate and afterwards measure the luminescence signal (CPS) of the plate using the Victor 5 plate reader (0.3 second read; 60 second plate shaking prior to read). Cell viability of a given compound at a given concentration is computed as follows: Cell viability=CPS Sample/(Average CPS unstimulated controls)*100 […] Follow Invitrogen/Biosource manufacture's protocol for the mouse TNFα ELISA. Chromogen development is typically conducted for 20-30 minutes as described in the manufacturer's protocol. After addition of stop solution, measure OD 450 nm using the Victor 5 plate reader (0.1 second/well scan). Determine the TNFα secretion percent of control. The following formula is used to determine the TNFα secretion percent of control: [formula] For each test compound, TNFα secretion percent of control can be plotted as a function of compound concentration using a four parameter dose-response curve fit equation (XLFIT Model #205): fit=([…]=([…]=(y-fit) […] A sample graph showing the data obtained by using one of the Compounds of the Invention in the procedure described above in Example 6 is shown in FIG. 2.

[1] = RAW264.7, RAW 264.7 macrophages, 10 ng/ml LPS, mouse TNFα ELISA, read-out: TNFα Secretion, IC50 μM

Question: CC/C=C\C/C=C\C/C=C\C/C=C\C/C=C\C/C=C\CCC(=O)NC(CC(C)C)C(=O)Oc1ccccc1C(=O)OCC (stereo not shown) [Compound I-1, ethyl 2-(2-(4Z,7Z,10Z,13Z,16Z,19Z)-docosa-4,7,10,13,16,19-hexaenamido-4-methylpentanoyloxy)benzoate] was tested. Which inhibition at 6.2 µM (Mus musculus, RAW264.7, read-out: TNFα Secretion, % Inhibition) did it give?
Answer: 24.4%

Question: With CC/C=C\C/C=C\C/C=C\C/C=C\C/C=C\C/C=C\CCC(=O)NCCNC(=O)c1ccccc1O [Compound 31, N-(2-(4Z,7Z,10Z,13Z,16Z,19Z)-docosa-4,7,10,13,16,19-hexaenamidoethyl)-2-hydroxybenzamide] as the compound, how does the IC50 [1] read?
Answer: 15 µM

Question: CC/C=C\C/C=C\C/C=C\C/C=C\C/C=C\C/C=C\CCC(=O)O [DHA, all-cis-4,7,10,13,16,19-docosahexaenoic acid, reference compound] was tested. Which IC50 [1] did it give?
Answer: > 100 µM

Question: Nc1ccc(O)c(C(=O)O)c1 [Compound 5-ASA, 5-aminosalicylic acid, reference compound] was tested. Which IC50 [1] did it give?
Answer: > 100 µM

Question: For CC/C=C\C/C=C\C/C=C\C/C=C\C/C=C\C/C=C\CCC(=O)NC(CC(C)C)C(=O)Nc1ccc(O)c(C(=O)O)c1 (stereo not shown) [III-6, 5-(2-(4Z,7Z,10Z,13Z,16Z,19Z)-docosa-4,7,10,13,16,19-hexaenamido-4-methylpentanamido)-2-hydroxybenzoic acid], which IC50 [1] is on record?
Answer: 65.3 µM

Question: For CC/C=C\C/C=C\C/C=C\C/C=C\C/C=C\C/C=C\CCC(=O)Oc1ccccc1C(=O)O [Ia-1, 2-((4Z,7Z,10Z,13Z,16Z,19Z)-docosa-4,7,10,13,16,19-hexaenoyloxy)benzoic acid], which IC50 [1] is on record?
Answer: 69.2 µM

Question: CC/C=C\C/C=C\C/C=C\C/C=C\C/C=C\C/C=C\CCC(=O)Nc1ccc(O)c(C(=O)O)c1 [III-1, 5-(4Z,7Z,10Z,13Z,16Z,19Z)-docosa-4,7,10,13,16,19-hexaenamido-2-hydroxybenzoic acid] was tested. Which IC50 (Mus musculus, RAW264.7, read-out: TNFα Secretion, IC50 μM) did it give?
Answer: 146 µM
